Reference: patent US11478460B2, “Diaryl substituted 6,5-fused ring compounds as C5aR inhibitors” (CHEMOCENTRYX, INC., priority 2017, dated 2022)

biological target: C5aR (Homo sapiens (Human), UniProt P21730); experiment: Chemotaxis assay using U937 cells (C5aR mediated migration); format: cell-based; conditions: read-out: Mig IC50
Experimental: U937 cells are a monocytic cell line which express C5aR, and are available from ATCC (VA). These cells were cultured as a suspension in RPMI-1640 medium supplemented with 2 mM L-glutamine, 1.5 g/L sodium bicarbonate, 4.5 g/L glucose, 10 mM HEPES, 1 mM sodium pyruvate, and 10% FBS. Cells were grown under 5% CO2/95% air, 100% humidity at 37° C. and subcultured twice weekly at 1:6 (cells were cultured at a density range of 1×10^5 to 2×10^6 cells/mL) and harvested at 1×10^6 cells/mL. Prior to assay, cells are treated overnight with 0.5 mM of cyclic AMP (Sigma, OH) and washed once prior to use. cAMP treated U937 cells can be used in C5aR ligand binding and functional assays.
Optionally, compounds may be further assayed for their ability to inhibit chemotaxis in cells. Chemotaxis assays are performed using 5 μm pore polycarbonate, polyvinylpyrrolidone-coated filters in 96-well chemotaxis chambers (Neuroprobe; Gaithersburg, Md.) using chemotaxis buffer (Hank's balanced salt solution (HBSS) and 1% FBS). C5aR ligands (i.e., C5a, R&D Systems; Minneapolis, Minn.) are use to evaluate compound mediated inhibition of C5aR mediated migration. Other chemokines (i.e., SDF-1α; R&D Systems; Minneapolis, Minn.) are used as specificity controls. The lower chamber is loaded with 29 μl of chemokine (i.e., 0.03 nM C5a) and varying amounts of compound; the top chamber contains 100,000 U937 or neutrophil cells in 20 μl. The chambers are incubated 1.5 hours at 37° C., and the number of cells in the lower chamber quantified either by direct cell counts in five high powered fields per well or by the CyQuant assay (Molecular Probes), a fluorescent dye method that measures nucleic acid content and microscopic observation.
The compounds in Table 1, below, were prepared using the methods described above. Characterization data is provided for each compound listed. Activity is provided as follows for the chemotaxis assay using U937 cells as described herein (Example 12): +, 500 nM<IC50; ++, 50 nM<IC50≤500 nM; +++, 5 nM<IC50≤50 nM; and ++++, IC50≤5 nM.

C5aR, sequence (P21730 whole entry): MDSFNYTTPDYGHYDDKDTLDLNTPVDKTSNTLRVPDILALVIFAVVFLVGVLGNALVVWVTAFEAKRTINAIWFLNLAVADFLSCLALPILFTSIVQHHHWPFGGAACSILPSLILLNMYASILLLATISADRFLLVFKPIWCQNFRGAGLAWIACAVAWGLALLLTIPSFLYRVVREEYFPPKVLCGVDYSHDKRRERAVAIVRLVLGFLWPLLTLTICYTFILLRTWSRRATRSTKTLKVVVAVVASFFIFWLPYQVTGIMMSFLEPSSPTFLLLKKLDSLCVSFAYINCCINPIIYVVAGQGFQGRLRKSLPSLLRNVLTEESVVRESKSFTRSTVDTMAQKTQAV

SMILES	IC50 [nM]
CCc1cccc(CC)c1-n1nc2c(c1-c1cc(F)c(NC(N)=O)cc1F)CN(Cc1ccc(C(F)(F)F)cc1Cl)CC2 [Example 1.057]	≤ 5
CCc1cccc(CC)c1-n1nc2c(c1-c1cc(F)c(NC(N)=O)cc1F)CN(Cc1ccc(C(F)(F)F)cc1C(F)(F)F)C(C)(C)C2 [Example 1.059]	≤ 5
Cc1cccc(C)c1-n1nc2c(c1-c1cc(F)c(NC(N)=O)cc1F)CN(Cc1ccc(C(F)(F)F)cc1C(F)(F)F)CC2 [Example 1.060]	5 to 50
CCc1cccc(CC)c1-n1nc2c(c1-c1cc(F)c(NC(N)=O)cc1F)CN(Cc1c(F)cc(C(F)(F)F)cc1C(F)(F)F)CC2 [Example 1.062]	≤ 5
CCc1cccc(CC)c1-n1nc2c(c1-c1cc(F)c(NC(N)=O)cc1F)CN(Cc1ccc(C(F)(F)F)cc1)CC2 [Example 1.065]	≤ 5
CCc1cccc(CC)c1-n1nc2c(c1-c1cc(F)c(NC(N)=O)cc1F)CN(Cc1ccc(C(F)(F)F)cc1F)CC2 [Example 1.066]	≤ 5
CCc1cccc(CC)c1-n1nc2c(c1-c1cc(F)c(NC(N)=O)cc1F)CN(Cc1ccccc1C(F)(F)F)CC2 [Example 1.067]	≤ 5
CCc1cccc(CC)c1-n1nc2c(c1-c1cc(F)c(NC(N)=O)cc1F)CN(Cc1cc(Cl)ccc1C(F)(F)F)CC2 [Example 1.069]	≤ 5
CCc1cccc(CC)c1-n1nc2c(c1-c1cc(F)c(NC(N)=O)cc1F)CN(Cc1cnn(CC)c1)CC2 [Example 1.072]	50 to 500
CCc1cccc(CC)c1-n1nc2c(c1-c1cc(F)c(NC(N)=O)cc1F)CN(Cc1ccc(Cl)cc1Cl)CC2 [Example 1.073]	≤ 5
CCc1cccc(CC)c1-n1nc2c(c1-c1cc(F)c(NC(N)=O)cc1F)CN(Cc1cn(C)nc1C(F)(F)F)CC2 [Example 1.075]	5 to 50
CCc1cccc(CC)c1-n1nc2c(c1-c1cc(F)c(NC(N)=O)cc1F)CN(Cc1ccc(C(F)(F)F)cc1C(F)(F)F)CC2 [Example 1.077]	≤ 5
Cc1cccc(C)c1-n1nc2c(c1-c1cc(F)c(NC(N)=O)cc1F)CN(C1(C)CCOCC1)CC2 [Example 1.078]	50 to 500
CCc1cccc(CC)c1-n1nc2c(c1-c1cc(F)c(NC(N)=O)cc1F)CN(C(c1ccccc1)C(C)(C)O)CC2 (stereo not drawn) [Example 1.080]	≤ 5
CC[C@@H](c1ccccc1)N1CCc2nn(-c3c(C)cccc3C)c(-c3ccc(NC(N)=O)cc3)c2C1 [Example 1.082]	50 to 500
CC[C@@H](c1ccccc1)N1CCc2nn(-c3c(C)cccc3C)c(-c3ccc(NC(N)=O)c(F)c3)c2C1 [Example 1.083]	5 to 50

SMILES	IC50 [nM]
CCc1cccc(CC)c1-n1nc2c(c1-c1cc(F)c(NC(N)=O)cc1F)CN([C@@H](CC)c1ccccc1)CC2 [Example 1.084]	≤ 5
Cc1cccc(C)c1-n1nc2c(c1-c1cc(F)c(NC(N)=O)cc1F)CN(C(c1ccccc1)C(C)(C)O)CC2 (stereo not drawn) [Example 1.085]	5 to 50
Cc1cccc(C)c1-n1nc2c(c1-c1cc(F)c(NC(N)=O)cc1F)CN(C(CO)c1ccccc1)CC2 (stereo not drawn) [Example 1.087]	50 to 500
Cc1cccc(C)c1-n1nc2c(c1-c1cc(F)c(NC(N)=O)cc1F)CN(C(C)(C)CO)CC2 [Example 1.088]	> 500
Cc1cccc(C)c1-n1nc2c(c1-c1cc(F)c(NC(N)=O)cc1F)CN(c1ncc(C3CC3)cc1F)CC2 [Example 1.089]	≤ 5
CC[C@@H](c1ccccc1)N1CCc2nn(-c3c(C)cccc3C)c(-c3cc(F)c(NC(N)=O)cc3F)c2C1 [Example 1.092]	≤ 5
Cc1cccc(C)c1-n1nc2c(c1-c1cc(F)c(NC(N)=O)cc1F)CN(c1ccc(C3CC3)cc1Cl)CC2 [Example 1.093]	≤ 5
Cc1cccc(C)c1-n1nc2c(c1-c1cc(F)c(NC(N)=O)cc1F)CN(c1cc(C(F)(F)F)ccc1F)CC2 [Example 1.094]	≤ 5
CCC(c1ccccc1)N1CCc2nn(-c3c(C)cccc3C)c(-c3cc(F)c(NC(N)=O)cc3F)c2C1 (stereo not drawn) [Example 1.096]	≤ 5
Cc1cc(-c2c3c(nn2-c2c(C)cccc2C)CCN(c2ncc(Cl)cc2Cl)C3)c(F)cc1NC(N)=O [Example 1.097]	≤ 5
Cc1cccc(C)c1-n1nc2c(c1-c1cc(F)c(NC(N)=O)cc1F)CN(c1ccc(C(C)(C)C)cc1Cl)CC2 [Example 1.098]	≤ 5
Cc1cccc(C)c1-n1nc2c(c1-c1cc(F)c(NC(N)=O)cc1F)CN(c1ncc(C(C)(C)O)cc1Cl)CC2 [Example 1.104]	50 to 500
Cc1cc(C(N)=O)ccc1-c1c2c(nn1-c1c(C)cccc1C)CCN(c1ncc(Cl)cc1Cl)C2 [Example 1.108]	> 500
Cc1cccc(C)c1-n1nc2c(c1-c1ccc(C(N)=O)cc1)CN(c1ncc(Cl)cc1Cl)CC2 [Example 1.109]	50 to 500
Cc1cccc(C)c1-n1nc2c(c1-c1ccc(C(N)=O)c(F)c1)CN(c1ncc(Cl)cc1Cl)CC2 [Example 1.110]	> 500
COc1cc(NC(N)=O)c(F)cc1-c1c2c(nn1-c1c(C)cccc1C)CCN(c1ccc(C(F)(F)F)cc1F)C2 [Example 1.111]	≤ 5

Now from value to compound:

IC50 [nM]	SMILES
≤ 5	CCc1cccc(CC)c1-n1nc2c(c1-c1cc(F)c(NC(N)=O)cc1F)CN(Cc1ccc(C(F)(F)F)cc1OC)CC2 [Example 1.058]
≤ 5	Cc1cccc(C)c1-n1nc2c(c1-c1cc(F)c(NC(N)=O)cc1F)CN(Cc1ccc(Cl)cc1C(F)(F)F)CC2 [Example 1.061]
≤ 5	CCc1cccc(CC)c1-n1nc2c(c1-c1cc(F)c(NC(N)=O)cc1F)CN(Cc1ccc(C)cc1C)CC2 [Example 1.063]
≤ 5	CCc1cccc(CC)c1-n1nc2c(c1-c1cc(F)c(NC(N)=O)cc1F)CN(Cc1ccc(C(F)(F)F)cc1C)CC2 [Example 1.064]
≤ 5	CCc1cccc(CC)c1-n1nc2c(c1-c1cc(F)c(NC(N)=O)cc1C)CN(Cc1ccc(C(F)(F)F)cc1C(F)(F)F)CC2 [Example 1.068]
≤ 5	CCc1cccc(CC)c1-n1nc2c(c1-c1cc(F)c(NC(N)=O)cc1F)CN(Cc1cc(Cl)ccc1Cl)CC2 [Example 1.070]
5 to 50	Cc1cccc(C)c1-n1nc2c(c1-c1cc(F)c(NC(N)=O)cc1F)CN(C(CC(C)(C)O)c1ccccc1)CC2 (stereo not drawn) [Example 1.071]
≤ 5	COC(=O)CC(c1ccccc1)N1CCc2nn(-c3c(C)cccc3C)c(-c3cc(F)c(NC(N)=O)cc3F)c2C1 (stereo not drawn) [Example 1.074]
≤ 5	CCc1cccc(CC)c1-n1nc2c(c1-c1cc(F)c(NC(N)=O)cc1F)CN(Cc1ccc(Cl)cc1C(F)(F)F)CC2 [Example 1.076]
5 to 50	CCc1cccc(CC)c1-n1nc2c(c1-c1cc(F)c(NC(N)=O)cc1F)CN(C(CO)c1ccccc1)CC2 (stereo not drawn) [Example 1.079]
5 to 50	CC[C@@H](c1ccccc1)N1CCc2nn(-c3c(C)cccc3C)c(-c3ccc(NC(N)=O)cc3F)c2C1 [Example 1.081]
> 500	Cc1cccc(C)c1-n1nc2c(c1-c1cc(F)c(NC(N)=O)cc1F)CN(CC(C)(C)O)CC2 [Example 1.086]
≤ 5	CCCC(O)C(C)(C)N1CCc2nn(-c3c(CC)cccc3CC)c(-c3cc(F)c(NC(N)=O)cc3F)c2C1 (stereo not drawn) [Example 1.090]
≤ 5	Cc1cccc(C)c1-n1nc2c(c1-c1cc(F)c(NC(N)=O)cc1F)CN(c1ncc(C(F)(F)F)cc1Cl)CC2 [Example 1.091]
≤ 5	Cc1cccc(C)c1-n1nc2c(c1-c1cc(F)c(NC(N)=O)cc1F)CN(c1ccc(Cl)cc1)CC2 [Example 1.095]
≤ 5	Cc1cccc(C)c1-n1nc2c(c1-c1cc(F)c(NC(N)=O)cc1F)CN(c1ccc(OC(F)(F)F)cc1F)CC2 [Example 1.099]
≤ 5	CC[C@H](c1ccccc1)N1CCc2nn(-c3c(C)cccc3C)c(-c3cc(F)c(NC(N)=O)cc3F)c2C1 [Example 1.100]
> 500	Cc1cccc(C)c1-n1nc2c(c1-c1cc(F)c(NC(N)=O)cc1F)CN(c1ncc(Cl)cc1C(N)=O)CC2 [Example 1.101]
≤ 5	Cc1cccc(C)c1-n1nc2c(c1-c1cc(F)c(NC(N)=O)cc1F)CN(c1ncc(Cl)cc1C#N)CC2 [Example 1.102]
≤ 5	Cc1cccc(C)c1-n1nc2c(c1-c1cc(F)c(NC(N)=O)cc1F)CN(c1ccccc1Cl)CC2 [Example 1.103]
≤ 5	Cc1cccc(C)c1-n1nc2c(c1-c1cc(F)c(NC(N)=O)cc1F)CN(c1ccc(F)cc1Cl)CC2 [Example 1.106]
≤ 5	Cc1cccc(C)c1-n1nc2c(c1-c1cc(F)c(NC(N)=O)cc1F)CN(c1ccc(Cl)cc1F)CC2 [Example 1.107]
≤ 5	Cc1cccc(C)c1-n1nc2c(c1-c1cc(F)c(O)cc1F)CN(c1ncc(Cl)cc1Cl)CC2 [Example 1.112]
≤ 5	Cc1cccc(C)c1-n1nc2c(c1-c1cc(F)c(NC(N)=O)cc1F)CN(c1ncc(C(C)C)cc1Cl)CC2 [Example 1.113]
≤ 5	COc1cc(NC(N)=O)c(F)cc1-c1c2c(nn1-c1c(C)cccc1C)CCN(c1ccc(Cl)cc1Cl)C2 [Example 1.114]
